The source of these data is PMC11456426, “Study of transport, tissue distribution, depletion, and hepatotoxicity of Cyadox, a quinoxaline-1,4-dioxide derivative” (Frontiers in Pharmacology, 2024).

Read-outs that look alike come from different tables or passages of the source.

One data set has as its system testis. On the set-up: method as in Ihsan et al., 2011. As to conditions: ref Ihsan et al., 2011, cited from earlier work.
The target in data set [1] is T1, bovine serum albumin (BSA) (Bos taurus, UniProt P02769). Put plainly: Circular dichroism spectra of the BSA-CYA system. In kind it is binding. As to conditions: 1.0 × 10^−6 M BSA with 1.0 × 10^−6 M CYA, pH 7.4, 312 K. The protocol: For CD studies, the final concentration of BSA and CYA was 1.0 × 10^−6 M. The CD spectra were recorded at 312 K with a Jasco-810 spectropolarimeter (Jasco, Japan) using a 0.1 cm quartz cuvette. Three scans were accumulated at a scan speed of 200 nm min^−1, with data being collected every 0.2 nm from 200 nm to 260 nm at 312 K.
T1 sequence (P02769 25-607): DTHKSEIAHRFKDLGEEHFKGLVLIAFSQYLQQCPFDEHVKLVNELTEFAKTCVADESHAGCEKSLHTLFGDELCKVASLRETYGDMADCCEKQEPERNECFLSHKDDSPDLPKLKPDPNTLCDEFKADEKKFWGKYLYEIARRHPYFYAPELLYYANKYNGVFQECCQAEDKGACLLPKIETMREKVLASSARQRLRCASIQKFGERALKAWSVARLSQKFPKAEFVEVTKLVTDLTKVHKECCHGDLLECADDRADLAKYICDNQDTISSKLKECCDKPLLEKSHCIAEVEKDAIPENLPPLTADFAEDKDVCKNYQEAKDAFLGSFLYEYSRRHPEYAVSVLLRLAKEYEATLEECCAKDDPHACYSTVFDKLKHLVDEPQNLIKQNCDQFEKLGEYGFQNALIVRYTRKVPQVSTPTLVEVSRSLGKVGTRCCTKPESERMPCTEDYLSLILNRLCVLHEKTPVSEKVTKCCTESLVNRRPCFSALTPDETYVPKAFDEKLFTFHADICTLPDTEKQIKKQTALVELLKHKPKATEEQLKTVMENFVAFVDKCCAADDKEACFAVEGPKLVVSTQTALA

Data set [2] addresses T1, bovine serum albumin (BSA). The data set is described as follows: Fluorescence quenching of BSA by CYA (Stern-Volmer and binding constants). As to conditions: for Kd: read-out: KA (binding constant) (converted). The protocol:
The concentration of CYA was varied at 0, 0.33, 0.66, 1.0, 1.33, 1.66, and 2.0 × 10^−6 M.
Steady-state fluorescence spectra were performed on a FP-6500 spectrofluorimeter (Jasco, Japan) equipped with a thermostatic bath and 1.0 cm quartz cell. Fluorescence emission spectra were recorded at 300, 305, and 310 K in the range of 295 nm–500 nm. The excitation and emission slits with a band pass of 5 nm were used for all the measurements.
Synchronous fluorescence spectra were performed when the D-values between the excitation and emission wavelengths were set at 15 and 60 nm. Fluorescence excitation spectra were recorded at 302, 307, and 312 K in the range of 200–400 nm.
The Stern–Volmer equation below was used to analyze the fluorescence quenching data and confirm the quenching mechanism ([Zhou et al., 2022]): F0/F=1+KSVQ=1+kqτ0Q , where F 0 and F are the fluorescence intensities before and after the addition of the quencher CYA, K sv is the Stern–Volmer quenching constant, k q is the bimolecular quenching constant, τ 0 is the lifetime of the fluorophore in the absence of the quencher (10^−8 s), and [Q] is the concentration of the quencher. The Stern–Volmer quenching constant K sv is inversely correlated with temperature, and the k q values are much greater than the maximum scattering collisional quenching constant (2.0 × 10^10 M^−1S^−1).
For static quenching, the equilibrium between the free and bound molecules is given by the following equation: logF0−F/F=logKA+nlogQ , where K A is the binding constant, and n is the number of binding sites. […] Moreover, the values of n were approximately equal to 1, which indicated the presence of one binding site in the BSA–CYA system.

A further data set has as its system liver. Put plainly: Hepatotoxicity by liver transcriptomics. It counts as in vivo, KM mice. As to conditions: mice, CYA 1,000 mg/kg bw, 7 days. The procedure:
For the hepatotoxicity study, a group of four mice (2 male and 2 female, KM) were administered CYA at a dose of 1,000 mg/kg bw. Another group of four mice received saline as a control. After 7 days, the mice were anaesthetised, sacrificed and their livers collected. A total of eight samples from 2 groups of the obtained livers were sent to Majorbio Technology Co., Ltd. (Shanghai, China) for testing, divided into the blank group (control; A1, A2, A3, A4) and the drug group administered CYA (drug; B1, B2, B3, B4), with 4 samples in each group. Sequencing was performed using the Meiji Medical Reference Transcriptome Sequencing Platform to complete the transcriptome analysis of eight samples. The raw reads were deposited into the NCBI Sequence Read Archive (SRA) database (BioProject: Number: PRJNA1082257).
Differently expressed genes are genes with significant differences obtained by computing the expression of all genes between different groups after transcriptome sequencing. On the Meggie Bio platform, differential gene analysis was carried out between groups by quantifying the expression results to obtain the genes that were differentially expressed between the two groups, and the differential analysis software was: DESeq2, the screening threshold was: |log2FC| ≥0 and padjust< 0.05, and the specific results are shown in Figure 5B below.

For the compound `CC(=O)c1c(C)[n+]([O-])c2ccccc2[n+]1[O-]` [MEQ, Mequindox], the “mRNA expression levels of AR and 3β-HSD” value in the data set with testis (110 mg/kg vs control group) is listed as “significantly increased”. The “mRNA expression levels of StAR, P450scc, and 17β-HSD in the testis” value with testis (275 mg/kg vs control group) was “significantly reduced”.

On to `N#CCC(=O)NN=Cc1c[n+]([O-])c2ccccc2[n+]1[O-]` [CYA, (2-formylquinoxaline)-N1,N4-dioxide cyanoacetylhydrazone], for which the “BSA secondary structure, turns” value in data set [1] (BSA alone 19%) amounted to 26%. For the same compound, in data set [1] (BSA alone 20%), the “BSA secondary structure, α-helix” value is listed as 21%. Further, the “BSA secondary structure, unordered” value in data set [1] (BSA alone 26%) amounted to 25%. Further, in data set [1] (BSA alone 35%), the “BSA secondary structure, β-strand” value is given as 28%. In data set [2] (T 302 K, pH 7.4), the “Ksv (Stern-Volmer quenching constant)” value turned out to be 86500 M⁻¹, the “kq (bimolecular quenching constant)” value is 8.65 × 10^12 M^−1S^−1, the “n (number of binding sites)” value is given as 1.139 and the Kd was 5.71 µM. Moreover, in data set [2] (T 307 K, pH 7.4), the “Ksv (Stern-Volmer quenching constant)” value amounted to 40700 M⁻¹, the “kq (bimolecular quenching constant)” value was 4.07 × 10^12 M^−1S^−1, the “n (number of binding sites)” value came out at 0.915 and the Kd was 103 µM. In data set [2] (T 312 K, pH 7.4), the “Ksv (Stern-Volmer quenching constant)” value came out at 33600 M⁻¹, the “kq (bimolecular quenching constant)” value was 3.36 × 10^12 M^−1S^−1, the “n (number of binding sites)” value is given as 0.931 and the Kd is 178 µM. The “n (number of binding sites)” value in data set [2] (all temperatures) is ~1. In the data set with liver, the “cell-process differential genes associated with apoptosis” value is reported as “none”; the “direction of change of lipid metabolism / steroid biosynthesis related genes” value is recorded as “predominantly downregulated”; the “expression of StAR, P450scc, and 17β-HSD (liver transcriptomic data)” value is on record as “no significant decrease”; the “genes expressed uniquely after administration of the drug” value is reported as 249. Moreover, in the data set with liver, the “genes of lipid metabolism-related pathways with significant changes” value is recorded as 25, the “hepatotoxicity (transcriptomic assessment)” value is “low hepatotoxicity” and the “significantly different genes associated with cell processes” value was determined as 23. In the data set with liver (DESeq2, padjust< 0.05), the “genes significantly downregulated in liver, drug group vs blank group” value amounted to 176.
